Results reported in publication PMC7392643, “Antibiotic fidaxomicin is an RdRp inhibitor as a potential new therapeutic agent against Zika virus” (BMC Medicine, 2020).

Assays:
in vitro = details: African green monkey
Procedure: Cell viability was detected by the 3-(4,5-dimethyl-2-thiazolyl)-2,5-diphenyl-2H-tetrazolium bromide (MTT) assay according to a previously described method [48]. Briefly, cells were seeded in 96-well plates at a density of 1 × 10^4 cells per well and cultured at 37 °C for 24 h, followed by exposure to the serially diluted fidaxomicin or ribavirin separately for 48 h. Cell survival rate was determined by MTT reduction assay according to the manufacturer’s protocol (Invitrogen). The 50% cytotoxic concentration (CC50) was defined as the compound concentration required to inhibit the cell growth by 50% compared with the control assay. The assay was performed in triplicates in three independent experiments.

ZIKV RdRp protein = target: T1, ZIKV RdRp protein (Zika virus, UniProt A0A024B7W1); experiment: SPR (BIAcore) binding to ZIKV RdRp protein; details: qualitative
T1 construct: RdRp (amino acids 272 to 903); His tag (8x histidine) (N); made in house; host or cells: Escherichia coli (Rosetta)
Procedure: (§1) The cDNA fragment of ZIKV (ZG-01 strain) NS5 (amino acids 1 to 903), RdRp (amino acids 272 to 903), or DENV2 NS5 (amino acids 1 to 900) containing an N-terminal His tag sequence was cloned into a pET-30a-mutant vector. For protein expression, the plasmids were transformed into Rosetta™ competent cells (TIANGEN BIOTECH Co., Ltd., Beijing, China), respectively. […] Mass spectrometry was performed by Shanghai Applied Protein Technology Co. Ltd. (Shanghai, China). The concentration of a targeted protein was measured by SDS-PAGE using BSA (Sigma, St. Louis, MO) as a standard.
(§2) Surface plasmon resonance (SPR) experiments were performed in a BIAcore T100 device (BIAcore Inc., Uppsala, Sweden) using CM5 sensor chips (General Electric Company, GE) according to the protocol provided by the manufacturer. Briefly, recombinant ZIKV NS5 protein, RdRp protein, or DENV2 NS5 protein was immobilized on a CM5 chip, respectively. Different concentrations of fidaxomicin or ribavirin were injected at a flow rate of 30 μL/min for 3 min. Subsequently, data were collected for a 3-min association followed by a 20-min dissociation. The chip was regenerated by injecting 10 μL of 15 mM NaOH for 20 s. All procedures were run in 1% DMSO PBS-P20 (GE) as a running buffer. The binding kinetics was analyzed with the software BIAevaluation version 3.1 using a 1:1 Langmuir binding model. The Kd was calculated as previously described.

ZIKV ZG-01 strain = experiment: In vitro antiviral assay, plaque assay, ZIKV ZG-01; details: for EC50 / EC90: Zika virus
Procedure: The anti-ZIKV activity of fidaxomicin and ribavirin was evaluated in vitro by plaque assay. Various cell lines, including SNB19 (6 × 10^4/well, 10% FBS DMEM), A172 (7 × 10^4/well, 10% FBS DMEM), Vero (6 × 10^4/well 10% FBS DMEM), Huh7 (7 × 10^4/well, 10% FBS DMEM), HUVECs (7 × 10^4/well, 15% FBS M199 medium supplemented with 2 mM L-glutamine, 0.02 mg/mL endothelial cell growth supplement, and 0.05 mg/mL heparin), and A549 (6 × 10^4/well, 5% FBS DMEM), were plated in 12-well plates and allowed to attach overnight, followed by infection with ZIKV (ZG-01 strain or MR766 strain, respectively, at indicated MOI) in the presence of different concentrations of fidaxomicin, ribavirin, or vehicle control for 1 h, followed by two washes with 1 × PBS and incubated with fresh medium (without virus) consisting of corresponding concentrations of the compounds for further 48 h. The cell supernatants were collected to quantify ZIKV infection by plaque assay as previously described or by RT-qPCR. […] The anti-DENV activity of fidaxomicin was evaluated in vitro by RT-qPCR.

[1] = target: T2, ZIKV NS5 full-length protein (Zika virus, UniProt A0A024B7W1); experiment: SPR (BIAcore) binding to ZIKV NS5 full-length protein; details: qualitative
T2 construct: NS5 (amino acids 1 to 903); His tag (8x histidine) (N); made in house; host or cells: Escherichia coli (Rosetta)
Procedure: as §1
as §2, with “All procedures were run in 1% DMSO PBS-P20 (GE) as a running buffer.” left out

ZIKV MR766 strain = experiment: In vitro antiviral assay, plaque assay, ZIKV MR766; type: cell-based; details: Zika virus, 48 h
Procedure: Various cell lines, including SNB19 (6 × 10^4/well, 10% FBS DMEM), A172 (7 × 10^4/well, 10% FBS DMEM), Vero (6 × 10^4/well 10% FBS DMEM), Huh7 (7 × 10^4/well, 10% FBS DMEM), HUVECs (7 × 10^4/well, 15% FBS M199 medium supplemented with 2 mM L-glutamine, 0.02 mg/mL endothelial cell growth supplement, and 0.05 mg/mL heparin), and A549 (6 × 10^4/well, 5% FBS DMEM), were plated in 12-well plates and allowed to attach overnight, followed by infection with ZIKV (ZG-01 strain or MR766 strain, respectively, at indicated MOI) in the presence of different concentrations of fidaxomicin, ribavirin, or vehicle control for 1 h, followed by two washes with 1 × PBS and incubated with fresh medium (without virus) consisting of corresponding concentrations of the compounds for further 48 h. The cell supernatants were collected to quantify ZIKV infection by plaque assay as previously described [47] or by RT-qPCR.

T1 sequence (A0A024B7W1 2792-3423): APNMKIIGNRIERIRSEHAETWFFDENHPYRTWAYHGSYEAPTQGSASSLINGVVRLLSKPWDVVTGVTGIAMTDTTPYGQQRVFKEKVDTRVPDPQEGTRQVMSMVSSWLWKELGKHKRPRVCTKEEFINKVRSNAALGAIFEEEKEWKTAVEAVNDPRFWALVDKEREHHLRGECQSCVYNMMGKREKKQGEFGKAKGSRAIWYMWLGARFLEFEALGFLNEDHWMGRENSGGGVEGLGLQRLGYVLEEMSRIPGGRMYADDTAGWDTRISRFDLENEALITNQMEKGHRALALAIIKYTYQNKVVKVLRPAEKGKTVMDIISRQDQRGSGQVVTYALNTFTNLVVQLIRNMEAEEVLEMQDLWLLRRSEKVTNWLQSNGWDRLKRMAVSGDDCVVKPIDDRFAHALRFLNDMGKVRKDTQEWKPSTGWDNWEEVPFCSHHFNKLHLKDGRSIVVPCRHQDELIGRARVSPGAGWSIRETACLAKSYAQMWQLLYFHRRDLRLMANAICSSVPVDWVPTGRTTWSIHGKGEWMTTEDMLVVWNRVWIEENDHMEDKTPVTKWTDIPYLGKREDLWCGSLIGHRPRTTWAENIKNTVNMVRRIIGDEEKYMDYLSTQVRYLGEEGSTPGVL
T2 sequence (A0A024B7W1 2521-3423): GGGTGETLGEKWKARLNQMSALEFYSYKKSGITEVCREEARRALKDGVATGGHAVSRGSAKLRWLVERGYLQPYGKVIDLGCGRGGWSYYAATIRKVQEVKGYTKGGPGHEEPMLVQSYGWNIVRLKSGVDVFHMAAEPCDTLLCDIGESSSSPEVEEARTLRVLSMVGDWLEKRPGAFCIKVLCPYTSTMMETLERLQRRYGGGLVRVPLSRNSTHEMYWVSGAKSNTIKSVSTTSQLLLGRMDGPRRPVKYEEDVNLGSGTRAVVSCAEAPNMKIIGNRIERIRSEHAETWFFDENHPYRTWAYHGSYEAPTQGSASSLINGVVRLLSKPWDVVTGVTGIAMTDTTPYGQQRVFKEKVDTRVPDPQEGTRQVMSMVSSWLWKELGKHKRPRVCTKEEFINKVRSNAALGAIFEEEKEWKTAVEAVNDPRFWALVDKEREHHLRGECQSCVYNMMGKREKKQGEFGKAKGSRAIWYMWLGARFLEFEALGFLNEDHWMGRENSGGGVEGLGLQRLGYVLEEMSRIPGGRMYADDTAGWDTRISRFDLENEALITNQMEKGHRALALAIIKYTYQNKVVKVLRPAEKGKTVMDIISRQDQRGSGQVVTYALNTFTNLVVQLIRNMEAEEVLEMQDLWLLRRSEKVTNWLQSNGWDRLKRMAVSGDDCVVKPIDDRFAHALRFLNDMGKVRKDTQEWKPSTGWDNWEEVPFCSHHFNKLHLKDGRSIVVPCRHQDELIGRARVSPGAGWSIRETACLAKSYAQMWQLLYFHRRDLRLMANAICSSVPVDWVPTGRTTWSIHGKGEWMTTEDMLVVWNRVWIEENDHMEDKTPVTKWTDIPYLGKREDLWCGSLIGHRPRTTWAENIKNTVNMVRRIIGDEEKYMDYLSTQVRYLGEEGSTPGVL

binding to ZIKV RdRp protein (SPR) (ZIKV RdRp protein): weak
EC50 (ZIKV ZG-01 strain; A549, 48 h): 33.2 ± 3.4 µM
EC90 (ZIKV ZG-01 strain; A549, 48 h): 71.6 ± 6.2 µM
EC50 (ZIKV ZG-01 strain; Huh-7, 48 h): 12.7 ± 2.3 µM
EC90 (ZIKV ZG-01 strain; Huh-7, 48 h): 54.3 ± 3.5 µM
EC50 (ZIKV ZG-01 strain; SNB-19, 48 h): > 100 µM
EC90 (ZIKV ZG-01 strain; SNB-19, 48 h): > 100 µM
EC50 (ZIKV ZG-01 strain; Vero, 48 h): > 100 µM
EC90 (ZIKV ZG-01 strain; Vero, 48 h): > 100 µM
binding to ZIKV NS5 protein (SPR) [1]: very weak interaction
EC50 (ZIKV MR766 strain; A549 cells): 35.2 ± 5.2 µM
EC90 (ZIKV MR766 strain; A549 cells): 74.6 ± 8.5 µM
EC50 (ZIKV MR766 strain; Huh-7, Huh7 cells): 15.6 ± 2.1 µM
EC90 (ZIKV MR766 strain; Huh-7, Huh7 cells): 58.3 ± 3.2 µM
EC50 (ZIKV MR766 strain; SNB-19, SNB19 cells): > 100 µM
EC90 (ZIKV MR766 strain; SNB-19, SNB19 cells): > 100 µM
EC50 (ZIKV MR766 strain; Vero cells): > 100 µM
EC90 (ZIKV MR766 strain; Vero cells): > 100 µM
Compound: NC(=O)c1ncn([C@@H]2O[C@H](CO)[C@@H](O)[C@H]2O)n1 [Ribavirin, ribavirin]
CC50 at 48 h (in vitro): 486 ± 20.1 µM
efficacy against ZIKV infection under non-cytotoxic concentration (ZIKV ZG-01 strain; SNB19 cells): far less effective
